Assay results as given in patent US6500610B1, “Methods for identifying compounds for inhibiting of neoplastic lesions, and pharmaceutical compositions containing such compounds” (Cell Pathways, INC, priority 1997, dated 2002).
Where a name gives a salt, the structure may show the parent alone. Read-outs that look alike come from different tables or passages of the source.

What was measured:
[1] = test system: HT-29 (Colon); experiment: Neutral red cytotoxicity assay, HT-29; type: cell-based, human; details: free base, five days
Experimental: (§1) Compound I's activity is not confined to activity against colon cancer cell lines or animal models of colon cancer. It has a broad range of anti-neoplastic effects in various neoplastic cell lines. Various types of human cancer cell lines were propagated under sterile conditions in RPMI 1640 medium with 10% fetal bovine serum, 2 mM L-glutamine and sodium bicarbonate. To determine growth inhibitory effects of Compound I, cells were seeded in 96-well plates at a density of 1000 cells per well. Twenty-four hours after plating, the cells were dosed with various concentrations of the free base of Compound I solubilized in DMSO (final concentration 0.1%). The effect of the drug on tumor cell growth was determined using the neutral red cytotoxicity assay following five days of continuous treatment. Neutral red is a dye that is selectively taken up by viable cells by an ATP-dependent transport mechanism.

[2] = test system: HCT-15 (Colon); experiment: Neutral red cytotoxicity assay, HCT-15; type: cell-based, human; details: free base, five days
Experimental: as §1

[3] = test system: rats; details: rat, in vivo
[4] = test system: PrEC primary prostate epithelial cells from normal prostate; experiment: Histone-associated DNA fragmentation in PrEC; type: cell-based; details: 50 μM, up to 4 days
Experimental: (§2) The androgen-sensitive prostate tumor cell line, LNCaP (from ATCC (Rockville, Md.)) was propogated under standard conditions using […] medium containing 5% fetal calve serum and 2 mM glutamine. Primary prostate epithelial cell cultures (PrEC) derived from normal prostate (from Clonetics Inc. (San Diego, Calif.)) were grown under the same conditions as the tumor cell line except a serum-free medium optimized for the growth of such cultures was used (Clonetics Inc). For the experiments, LNCaP or PrEC cells were seeded in 96 well plates at a density of 10,000 cells per well. After 24 hours, the cells were treated with either vehicle (0.1% DMSO) or 50 μM Compound I (free base) solubilized in DMSO. After various drug treatment times (4, 24, 48, 72, or 99 hours) the cells were lysed and processed for measurement of histone-associated DNA as an indicator of apoptotic cell death (see, Piazza et al., Cancer Research 57: 2452-2459, 1997).

[5] = test system: NCI-H23 (Lung); experiment: Neutral red cytotoxicity assay, NCI-H23; type: cell-based, human; details: free base, five days
Experimental: as §1

[6] = test system: DU145 (Prostate); experiment: Neutral red cytotoxicity assay, DU145; type: cell-based, human; details: free base, five days
Experimental: as §1

[7] = test system: LNCaP prostate tumor cell line; experiment: Histone-associated DNA fragmentation in LNCaP; type: cell-based; details: 50 μM free base, up to 4 days
Experimental: as §2

[8] = test system: dogs; details: dog, in vivo
[9] = test system: NCI-H82 (Lung); experiment: Neutral red cytotoxicity assay, NCI-H82; type: cell-based, human; details: free base, five days
Experimental: as §1

[10] = test system: Colo 205 (Colon); experiment: Neutral red cytotoxicity assay, Colo 205; type: cell-based, human; details: free base, five days
Experimental: as §1

[11] = test system: SW-620 (Colon); experiment: Neutral red cytotoxicity assay, SW-620; type: cell-based, human; details: free base, five days
Experimental: as §1

[12] = Acute and seven-dose toxicity in dogs; details: both, dog, in vivo, po, 1000 mg/kg
[13] = test system: azoxymethane-induced aberrant crypt foci in male Fisher 344 rats; experiment: Azoxymethane-induced aberrant crypt foci (ACF) model; type: in vivo; details: in the rat chow
Experimental: The growth inhibition IC50 value obtained for Compound I was 0.7 μM in the SW-480 cell line. […] This established rodent model of azoxymethane (“AOM”)-induced carcinogenesis was used to assess the effects of Compound I (free base and salt) on colon cancer development in vivo. ACF are precursors to colonic tumors, and ACF inhibition is predictive of chemo-preventive efficacy.
In the rats in this experiment, ACF initiation was achieved by two consecutive weekly injections of the carcinogen. Compound I was administered one week prior to ACF initiation and for the duration of the experiment. ACFs were scored after 5 weeks of treatment. Compound I was administered orally to male Fisher 344 rats in the rat chow. Daily food consumption (mg/kg body weight) varied over the course of the study, and therefore Compound I dose was expressed a grams per kg of diet to provide a basis of comparison between doses. […] The experimental groups gained less weight than the controls, which was indicative of bioavailability. However, the weight differences were less than 10% and not considered to affect ACF formation.
The free base of Compound I inhibited ACF formation as measured by a reduction of crypts per colon. […]

[14] = test system: NCI-H460 (Lung); experiment: Neutral red cytotoxicity assay, NCI-H460; type: cell-based, human; details: free base, five days
Experimental: as §1

[15] = Acute toxicity study in rats; details: rat, in vivo
[16] = test system: rats; experiment: Seven-day dose-range finding study in rats; type: in vivo, rat; details: seven days
[17] = test system: MDA-MB-435 (Breast); experiment: Neutral red cytotoxicity assay, MDA-MB-435; type: cell-based, human; details: free base, five days
Experimental: as §1

[18] = test system: UISO-BCA-1 (Breast); experiment: Neutral red cytotoxicity assay, UISO-BCA-1; type: cell-based, human; details: free base, five days
Experimental: as §1

[19] = test system: rats; experiment: 28-day study in rats; type: in vivo, rat
[20] = test system: patients; experiment: Single, escalating dose human clinical safety study; type: in vivo; details: oral

CC1=C(CC(=O)NCc2ccccc2)c2cc(F)ccc2/C1=C\c1ccncc1 [Compound I, (Z)-5-fluoro-2-methyl-(4-pyridylidene)-3-(N-benzyl)indenylacetamide hydrochloride]
GI90 [1]: 8.0 µM
GI90 [2]: 3.0 µM
body weight gain ([3]; ip, 1000 mg/kg): reduced body weight gain
body weight gain ([3]; po, 4000 mg/kg): body weight gains were slightly reduced
DNA fragmentation [4]: did not affect DNA fragmentation
GI90 [5]: 2.5 µM
GI90 [6]: 2.8 µM
histone-associated fragmented DNA [7]: time-dependent increase
signs of toxicity ([8]; 1000 mg/kg): no signs of toxicity
drug-related effects ([8]; 1000 mg/kg/day): At no time in either dosing phase were any obvious signs of drug-related effects observed
GI90 [9]: 5.8 µM
GI90 [10]: 2.4 µM
GI90 [11]: 2.5 µM
LD50 [12]: > 1000 mg/kg
body weight difference to controls [13]: less than 10%
GI90 [14]: 30.0 µM
LD50 ([15]; ip, 1000 mg/kg): > 1000 mg/kg
LD50 ([15]; po): > 4000 mg/kg
signs of toxicity ([16]; 50 mg/kg/day): no observable signs of toxicity
treatment-related effects ([16]; 500 mg/kg/day): increase in absolute and relative liver weights in female rats
treatment-related effects ([16]; 2000 mg/kg/day): labored breathing and/or abnormal respiratory sounds, decreased weights gains and food consumption in male rats, and increased liver weights in female rats
GI90 [17]: 2.3 µM
GI90 [18]: 4.7 µM
organ weights ([19]; 28 days, 2000 mg/kg/day): statistically significant increase in liver weights
clinical observations ([19]; 28 days, 50, 500 and 2000 mg/kg/day): no abnormal clinical observations
side effects [20]: no significant side effects at any dose
